# Structures can show the parent of a compound that is named as a salt.
# Legend:
# [1] = target: Sodium-dependent dopamine transporter (Rattus norvegicus, UniProt P23977); assay: Inhibition of dopamine uptake in synaptosomal preparation in rat corpus striatum, using [3H]dopamine; format: functional, tissue-based
# [2] = target: Norepinephrine transporter (Rattus norvegicus, UniProt Q9WTR4); assay: Inhibition of norepinephrine uptake in synaptosomal preparation fro rat hypothalamus, using [3H]norepinephrine; format: functional, tissue-based
# Sequence of Norepinephrine transporter (Q9WTR4 whole entry): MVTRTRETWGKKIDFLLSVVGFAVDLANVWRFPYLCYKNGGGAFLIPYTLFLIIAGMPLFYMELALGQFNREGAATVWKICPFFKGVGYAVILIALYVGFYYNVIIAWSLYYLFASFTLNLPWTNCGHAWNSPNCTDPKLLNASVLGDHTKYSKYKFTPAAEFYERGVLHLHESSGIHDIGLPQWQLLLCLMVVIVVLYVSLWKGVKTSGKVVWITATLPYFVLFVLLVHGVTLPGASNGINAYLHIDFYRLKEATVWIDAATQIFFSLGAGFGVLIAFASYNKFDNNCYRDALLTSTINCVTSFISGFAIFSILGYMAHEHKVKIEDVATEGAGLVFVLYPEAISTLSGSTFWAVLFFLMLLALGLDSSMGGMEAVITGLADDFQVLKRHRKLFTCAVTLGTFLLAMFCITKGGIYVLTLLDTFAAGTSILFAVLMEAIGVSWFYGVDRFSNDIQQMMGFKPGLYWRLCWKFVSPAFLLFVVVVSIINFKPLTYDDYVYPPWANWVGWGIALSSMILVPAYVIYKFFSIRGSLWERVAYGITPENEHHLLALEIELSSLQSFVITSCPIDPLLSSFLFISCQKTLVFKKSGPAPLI
# Sequence of Sodium-dependent dopamine transporter (P23977 whole entry): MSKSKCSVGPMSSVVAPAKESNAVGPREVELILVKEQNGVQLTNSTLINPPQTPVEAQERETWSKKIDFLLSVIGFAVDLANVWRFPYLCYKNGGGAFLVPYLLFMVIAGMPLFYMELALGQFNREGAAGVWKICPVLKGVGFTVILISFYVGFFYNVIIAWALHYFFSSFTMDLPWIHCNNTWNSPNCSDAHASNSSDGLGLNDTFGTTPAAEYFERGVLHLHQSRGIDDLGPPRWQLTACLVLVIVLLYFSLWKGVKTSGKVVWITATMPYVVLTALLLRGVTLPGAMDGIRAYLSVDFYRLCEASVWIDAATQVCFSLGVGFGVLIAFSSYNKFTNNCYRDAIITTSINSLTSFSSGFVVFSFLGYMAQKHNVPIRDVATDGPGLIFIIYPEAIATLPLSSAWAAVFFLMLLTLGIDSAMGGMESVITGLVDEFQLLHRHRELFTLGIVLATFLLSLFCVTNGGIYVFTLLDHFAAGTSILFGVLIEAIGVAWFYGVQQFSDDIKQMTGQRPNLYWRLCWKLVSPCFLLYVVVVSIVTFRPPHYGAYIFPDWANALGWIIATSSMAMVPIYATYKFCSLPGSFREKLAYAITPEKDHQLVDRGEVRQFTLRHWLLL
Structure (SMILES),IC50 [1] [nM],IC50 [2] [nM]
CN(C)[C@H]1CC[C@@H](c2ccccc2)c2ccccc21,10000,310
CN[C@H]1CC[C@@H](c2ccccc2)c2ccccc21,5100,1860
CN(C)[C@@H]1CC[C@@H](c2ccc(Cl)cc2)c2ccccc21,380,130
CCCCOc1ccc([C@@H]2CC[C@H](NC)c3ccccc32)cc1,–,940
CN[C@@H]1CC[C@@H](c2ccccc2)c2ccccc21 [TAMETRALINE HYDROCHLORIDE],210,40
CN[C@H]1CC[C@@H](c2cccc(C(F)(F)F)c2)c2ccccc21 (stereo in doubt; 57),2500,7800
CN(C)[C@H]1CC[C@@H](c2ccc(C(F)(F)F)cc2)c2ccccc21,12200,14200
CN(C)[C@@H]1CC[C@@H](c2ccc(Cl)c(Cl)c2)c2ccccc21,170,–
CN[C@@H]1CC[C@@H](c2cccc(C(F)(F)F)c2)c2ccccc21,2600,260
CN[C@H]1CC[C@@H](c2ccc(Oc3ccccc3)cc2)c2ccccc21,6800,3900
CN(C)[C@@H]1CC[C@@H](c2ccc(C(F)(F)F)cc2)c2ccccc21,9800,4700
CN[C@@H]1CC[C@@H](c2ccccc2)c2ccccc21 (stereo in doubt; 45) [TAMETRALINE],1400,370
CN(C)[C@@H]1CC[C@@H](c2ccccc2)c2ccccc21,840,140
CN[C@@H]1CC[C@@H](c2ccc(Br)cc2)c2ccccc21,80,30
N[C@H]1CC[C@@H](c2ccc(Cl)c(Cl)c2)c2ccccc21,1250,250
CN[C@@H]1CC[C@@H](c2ccc(F)cc2)c2ccccc21,220,30

Structure (SMILES),IC50 [1] [nM],IC50 [2] [nM]
CN[C@H]1CC[C@@H](c2ccc(F)cc2)c2ccccc21,4700,2300
CN[C@H]1CC[C@@H](c2cccc(C(F)(F)F)c2)c2ccccc21 (stereo in doubt; 56),9700,2700
CCCCOc1ccc([C@@H]2CC[C@@H](NC)c3ccccc32)cc1,–,1150
CN[C@H]1CC[C@@H](c2ccc(Br)cc2)c2ccccc21,1600,1400
CN(C)[C@H]1CC[C@@H](c2ccc(Cl)c(Cl)c2)c2ccccc21,2000,–
CN(C)[C@H]1CC[C@@H](c2ccc(Cl)cc2)c2ccccc21,5600,1160
CN(C)[C@H]1CC[C@@H](c2cccc(C(F)(F)F)c2)c2ccccc21,7000,890
CN1Cc2c(N)cccc2C(c2ccccc2)C1 (configuration not stated) [NOMIFENSINE],–,20
CN[C@@H]1CC[C@@H](c2ccc(OC)cc2)c2ccccc21,400,150
CN[C@H]1CC[C@@H](c2ccccc2)c2ccccc21 (stereo in doubt; 51),10200,4200
CN[C@@H]1CC[C@@H](c2ccccc2)c2ccccc21 (stereo in doubt; 44) [TAMETRALINE],150,18
CN(C)[C@@H]1CC[C@@H](c2cccc(C(F)(F)F)c2)c2ccccc21,6100,1400
CN[C@H]1CC[C@@H](c2cccc(C(F)(F)F)c2)c2ccccc21,2540,2550
CN[C@H]1CC[C@@H](c2ccc(OC)cc2)c2ccccc21,4200,3000
CN[C@H]1CC[C@@H](c2ccccc2)c2ccccc21 (stereo in doubt; 50),5500,1800
CN[C@@H]1CC[C@@H](c2ccc(Oc3ccccc3)cc2)c2ccccc21,8400,2300

# More lines, main results first:
IC50 [1] [nM],Structure (SMILES),IC50 [2] [nM]
43000,CN(C)C/C=C(/c1ccc(Br)cc1)c1cccnc1 [ZIMELDINE],–
4400,CN[C@@H]1CC[C@@H](c2ccc(C(F)(F)F)cc2)c2ccccc21,690
5700,CN[C@@H]1CC[C@@H](c2ccccc2OC)c2ccccc21,480
1200,CN[C@@H]1CC[C@@H](c2ccc(F)c(OC)c2)c2ccccc21,340
45000,COCCCC/C(=N\OCCN)c1ccc(C(F)(F)F)cc1 [FLUVOXAMINE],1900
5600,CN[C@H]1CC[C@@H](c2ccc(C(F)(F)F)cc2)c2ccccc21 (stereo in doubt; 55),12000
5000,CN[C@H]1CC[C@@H](c2cccc(OC)c2)c2ccccc21,1400
530,CN[C@@H]1CC[C@@H](c2cccc(OC)c2)c2ccccc21,60
6400,CN[C@H]1CC[C@@H](c2ccc(C(F)(F)F)cc2)c2ccccc21 (stereo in doubt; 54),9400
11200,CN[C@H]1CC[C@@H](c2ccccc2OC)c2ccccc21,2300
7800,CN[C@H]1CC[C@@H](c2ccc(C(F)(F)F)cc2)c2ccccc21,9800
10000,N[C@H]1CC[C@@H](c2ccc(C(F)(F)F)cc2)c2ccccc21,7500
6100,CN[C@@H]1CC[C@@H](c2ccc(Cl)cc2Cl)c2ccccc21,–
490,CN[C@H]1CC[C@@H](c2ccc(Cl)c(C(F)(F)F)c2)c2ccccc21 (stereo in doubt; 61),–
6200,CN[C@H]1CC[C@@H](c2ccc(Cl)c(C(F)(F)F)c2)c2ccccc21 (stereo in doubt; 60),–
7300,CN[C@@H]1CC[C@@H](c2ccc(Cl)c(C(F)(F)F)c2)c2ccccc21,–
850,CN[C@H]1CC[C@@H](c2ccc(F)c(OC)c2)c2ccccc21,3300
1700,CN[C@H]1CC[C@@H](c2ccc(Cl)cc2Cl)c2ccccc21,–
1500,CN[C@H]1CC[C@@H](c2ccc(Cl)c(C(F)(F)F)c2)c2ccccc21,–
4700,N[C@H]1CC[C@@H](c2cccc(C(F)(F)F)c2)c2ccccc21,3500

# — ChEMBL document CHEMBL1122801, “Nontricyclic antidepressant agents derived from cis- and trans-1-amino-4-aryltetralins” (J Med Chem, 1984)
